Measurements: US5332732A, “Thiophene and pyridine antipsychotic agents” (McNeilab, Inc., priority 1992, dated 1994)
Structures can show the parent of a compound that is named as a salt.

Test system: Conditioned Avoidance Responding (Rat)
Test: Block of Conditioned Avoidance Responding (Rat) test (CAR)
Assay type: in vivo, Male Fischer 344 rats
Conditions: for % escape loss: group mean % failures to escape; for % Inhibition CAR: mean % change in CAR vs vehicle day, negative = blockade
Description: The antipsychotic activity of the compounds of the invention may be determined by the Block of Conditioned Avoidance Responding (Rat) test (CAR), the references being Cook, L. and E. Weidley in Ann. […] P. Reynolds Trends Pharmacol. Sci. 1992, 13, 116). […] Block of Conditioned Avoidance Responding (Rat) Apparatus: Rat operant chambers, housed within sound attenuated booths, both from […] Instruments Ltd., were used in this test. The test chamber (8" H×903/8" W×9" D) is constructed of aluminum and plexiglass with floor grid bars of stainless-steel (1/8" O.D.) spaced 9/16" apart. A stainless-steel operation level 11/2" wide projects 3/4" into the chamber and is positioned 2-2/8" above the grid floor. The shock stimulus is delivered via the grid floor by a Coulbourn Instruments solid state module. The parameters of the test and the collection of data are controlled automatically. Training: Male, Fischer 344 rats obtained from Charles River (Kingston, N.Y.) weighing more than 200 g, are individually housed with chow and water provided ad libitum. The rats are trained for two weeks to approach criterion levels in the avoidance test (90% avoidance rate). One-hour training sessions are run at about the same time each day for four or five days a week. The training session consists of 120 tdals, with the conditioned stimuli presented every 30 sec. A trial begins with presentation of the conditioned stimuli (a light and a tone). If the rat responds by depressing the operant lever during the 15-second presentation of the conditioned stimuli, the trial is terminated .and the animal is credited with a CAR. Failure to respond during the conditioned stimuli causes the presentation of the unconditioned stimulus (UCS), a 0.7 mA shock which is accompanied by a light and tone for […]. If the rat depressed the lever within the ten-second period, the shock and trial are terminated and an escape response recorded. If the rat fails to depress the lever during the UCS (shock), the trial is terminated after ten seconds of shock and the absence of a response is scored as a failure to escape. […] presses have no effect. If a rat performs at the 90% CAR level for two weeks, it is then run twice a week on the test schedule (see below) until baseline performance stabilized. Before any drug is administered, two weeks of CAR at a rate of 90% or better is required. Determination of ED50 Values Trained rats are run in a one-hour session on two consecutive days at the same time and in the same test chamber each day. The sessions consist of 60 trials, one every minute. The conditioned stimuli are presented for 15 sec (maximum) and the unconditioned stimuli five sec (maximum). On Day 1, a vehicle solution is administered to the rats at a time preceding the trial run corresponding to the pretreatment time for the test compound. The route of administration and the volume of vehicle are also matched to that of the test compound. […] The percent change in CAR on the drug treatment day compared to vehicle pretreatment day is the key measure. The percent change (% change) in CAR is determined using the following formula: % change CAR=((Day 2% CAR/Day 1% CAR)×100)-100 A negative number indicates a blockade of CAR, whereas a positive number would indicate increased CAR. The test results are reported as the mean % change for the group of rats. A reading of -20% is generally taken to represent a minimum value for a compound to be designated as active at a given dose in the CAR test. Failure to escape was calculated for each animal as follows: % Failures=# of Failures to Escape/# of trials The % failures, viz., loss of escape, is also reported as a group mean. Failures to escape are monitored closely and a session is terminated if ten failures occurred. ED50 values and 95% confidence limits are calculated using linear regression analysis.

Row | SMILES | % escape loss (5 mpk, PI) [%] | % Inhibition CAR (5 mpk, PI) [%] | % escape loss (15 mpk) [%] | % Inhibition CAR (15 mpk) [%]
1 | CC(C)Oc1ccccc1N1CCN(Cc2ccc(C(=O)N3CCCCC3)s2)CC1.O=C(O)/C=C/C(=O)O [CP #1, 1-[[5-[[1-[2-(1-Methylethoxy)phenyl]-4-piperazinyl]methyl]-2-thienyl]carbonyl]piperidine Fumarate] | 18 | -56 |  | 
2 | CC(C)Oc1ccccc1N1CCN(Cc2cc(C(=O)N3CCCCC3)cs2)CC1.Cl [CP #2, 1-[[5-[[1-[2-(1-Methylethoxy)phenyl]-4-piperazinyl]methyl]-3-thienyl]carbonyl]piperidine Monohydrochloride] | 34 | -72 |  | 
3 | CC(C)Oc1ccccc1N1CCN(Cc2ccc(C(=O)N3CCCCCC3)s2)CC1 [CP #3, Hexahydro-1-[[5-[[1-[2-(1-methylethoxy)phenyl]-4-piperazinyl]methyl]2-thienyl]carbonyl]-1H-azepine Monohydrochloride Hemi Hydrate] | 3 | -8 |  | 
4 | CC(C)Oc1ccccc1N1CCN(Cc2cc(C(=O)N3CCCCCC3)cs2)CC1 [CP #4, Hexahydro-1-[5-[[-1-[2-(1-Methylethoxy)phenyl-4-piperazinyl]methyl]-3-thienyl]carbonyl]-1-H-azepine Hydrochloride Hydrate] | 3 | -41 |  | 
5 | CC(C)Oc1ccccc1N1CCN(Cc2ccc(CN3CCCCC3=O)s2)CC1 [CP #5, 1-[[5-[[1-[2-(1-Methylethoxy)phenyl-4-piperazinyl]methyl]-2-thienyl]methyl]-2-piperidinone Hydrochloride] | 3 | -58 |  | 
6 | O=C1CCCCN1Cc1ccc(CN2CCN(c3cccc4ccoc34)CC2)s1 [CP #6, 1-[[5-[[1-(7-Benzofuranyl)-4-piperazinyl]methyl]-2-thienyl]methyl]-2-piperidinone1.5 Fumarate Hydrate] | 5 | -63 |  | 
7 | CC(C)Oc1ccccc1N1CCN(Cc2cccc(CN3CCCCC3=O)n2)CC1 [CP #7, 1-[[6-[[1-[2-(Methylethoxy)phenyl]-4-piperazinyl]methyl]pyridinyl]methyl]-2-piperidinone Hydrochloride] |  |  | 0 | -85
